Measurements taken from US9980966B2, “Combinations of cancer therapeutics” (Merck Patent GmbH, priority 2014, dated 2018).

Columns and labels:
[1] = system: Her2+ patient-derived breast model "CTG-0033"; experiment: Patient derived xenograft model of breast cancer, tumor volume efficacy study; format: in vivo, mice
Source text: Female nude (Harlan; nu/nu) between 5-7 weeks were implanted subcutaneously with tumor fragments from the Her2+ patient-derived breast model “CTG-0033” (passage 3, i.e. the model has been serially passaged/grown from the original host 3 times) harvested from host animals. When host tumors reached 1-1.5 cm^3, tumors were harvested for re-implantation into animals to be used for the efficacy study. When the CTG-0033 (passage 4) tumors reached approximately 190 mm^3; animals were randomized by tumor volume into treatment or control groups (n=10) and dosing was initiated on Day 0. […] Tumor volumes were recorded twice per week. […] The other treatments were stopped at Day 75 and tumors were allowed to grow back for over 2 months with mice receiving no treatment.

[2] = system: broad panel of cancer cell lines; experiment: Anti-tumor activity of the single agent in a panel of cancer cell lines; format: cell-based
Method: The cell lines were grown in the media recommended by the suppliers in the presence of 100 U/ml penicillinG and 100 μg/ml streptomycin supplied with 10% FCS (PAN, Germany).
Cell growth and treatment were performed in 96-well microtitre plates. Cells harvested from exponential phase cultures by trypsinization were plated in 190 μl of media at optimal seeding densities. The optimal seeding densities for each cell line were determined to ensure exponential growth for the duration of the experiment. All cells growing without anticancer agents were sub-confluent by the end of the treatment as determined by visual inspection. Compound dilutions in DMSO were performed in 96-well rigid PCR plates. Compounds were then diluted […] in RPMI medium. 190 μl of cells, after a 24-hour pre-growth period, were treated by mixing with 10 μl of the compound-containing media (resulting in a final DMSO concentration of 0.1%). The cells were allowed to grow at 37° C. for 72 hours. In addition, all experiments contained a few plates with cells that were processed for measurement immediately after the 24 hours recovery period. These plates contained information about the cell number that existed before treatment, at time zero, and served to calculate the cytotoxicity and/or growth inhibitory effects. […] Measurement of optical density was performed at 560 nm on a Victor 2 plate reader (Perkin Elmer, Germany). […]

For NC(=O)c1cccc2c(N[C@H](CN3CCC3)c3ccc(Cl)c(C(F)(F)F)c3)ncnc12 [Compound A, 4-[(S)-2-Azetidin-1-yl-1-(4-chloro-3-trifluoromethyl-phenyl)-ethylamino]-quinazoline-8-carboxylic acid amide], the tumor regression ([1]; Day 55, Compound A 30 mg/kg QD PO, Herceptin 15 mg/kg QW IV in the combination, CTG-0033 tumors in female nude mice) was 50%, the tumor regression ([1]; Day 76, after treatment until Day 75) was −66% and the “number of treated tumors that grew back” value ([1]; after 71 days of regrowth period after cessation of treatment, log rank sum test p<0.05) was 6. The “anti-tumor activity against a broad panel of cancer cell lines” value [2] was “potent anti-tumor activity” and the “sensitivity of cancer cells to the compound” value ([2]; breast cancer cells, glioblastoma cells, endometrial cancer cells and ovarian carcinoma cells) was “particularly sensitive”.
